In BindingDB's records for patent US12384798 (Nanjing Ruijie Pharma Co., 2025):

Legend:
Acetyl-CoA carboxylase 1 = Acetyl-CoA carboxylase 1 (Homo sapiens, UniProt Q13085); assay: In Vitro Assay of Acetyl-CoA Carboxylase (ACC) Inhibition
Experimental: (§1) An exemplary procedure for the in vitro ACC inhibition assay, which can be used to determine the inhibitory action of the compounds of the invention toward either ACC1 or ACC2, is as follows. The ADP-Glo™ kinase assay kit from Promega was used. The ADP-Glo™ kinase assay is a luminescent ADP detection assay to measure enzymatic activity by quantifying the amount of ADP produced during an enzyme reaction. The assay was performed in two steps; first, after the enzyme reaction, an equal volume of ADP-Glo™ reagent was added to terminate the reaction and deplete the remaining ATP. Then, the kinase detection reagent was added to simultaneously convert ADP to ATP and allow the newly synthesized ATP to be measured using a luciferase/luciferin reaction. Luminescence can be correlated to ADP concentrations by using an ATP-to-ADP conversion curve. The detailed procedure was as follows. 4.5 μL of a working solution was added to a 384-well plate. […] A final ACC reaction solution consisted of: 0.5 nM ACC, 10 μM ATP, 5 μM acetyl-CoA, and 15 mM NaHCO3; and the final concentrations of the compound were measured as follows: 1 μM, 0.333 μM, 0.111 μM, 0.037 μM, 0.0123 μM, 0.00411 μM, 0.00137 μM, 0.000457 μM, 0.000152 μM, and 0.000051 μM. […] The plates were incubated at room temperature for 40 minutes, then read on a Perkin Elmer EnVision 2104 plate reader for luminescence in relative light unit (RLU).

Acetyl-CoA carboxylase 2 = Acetyl-CoA carboxylase 2 (Homo sapiens, UniProt O00763); assay: as above
Acetyl-CoA carboxylase 2, sequence (O00763 whole entry): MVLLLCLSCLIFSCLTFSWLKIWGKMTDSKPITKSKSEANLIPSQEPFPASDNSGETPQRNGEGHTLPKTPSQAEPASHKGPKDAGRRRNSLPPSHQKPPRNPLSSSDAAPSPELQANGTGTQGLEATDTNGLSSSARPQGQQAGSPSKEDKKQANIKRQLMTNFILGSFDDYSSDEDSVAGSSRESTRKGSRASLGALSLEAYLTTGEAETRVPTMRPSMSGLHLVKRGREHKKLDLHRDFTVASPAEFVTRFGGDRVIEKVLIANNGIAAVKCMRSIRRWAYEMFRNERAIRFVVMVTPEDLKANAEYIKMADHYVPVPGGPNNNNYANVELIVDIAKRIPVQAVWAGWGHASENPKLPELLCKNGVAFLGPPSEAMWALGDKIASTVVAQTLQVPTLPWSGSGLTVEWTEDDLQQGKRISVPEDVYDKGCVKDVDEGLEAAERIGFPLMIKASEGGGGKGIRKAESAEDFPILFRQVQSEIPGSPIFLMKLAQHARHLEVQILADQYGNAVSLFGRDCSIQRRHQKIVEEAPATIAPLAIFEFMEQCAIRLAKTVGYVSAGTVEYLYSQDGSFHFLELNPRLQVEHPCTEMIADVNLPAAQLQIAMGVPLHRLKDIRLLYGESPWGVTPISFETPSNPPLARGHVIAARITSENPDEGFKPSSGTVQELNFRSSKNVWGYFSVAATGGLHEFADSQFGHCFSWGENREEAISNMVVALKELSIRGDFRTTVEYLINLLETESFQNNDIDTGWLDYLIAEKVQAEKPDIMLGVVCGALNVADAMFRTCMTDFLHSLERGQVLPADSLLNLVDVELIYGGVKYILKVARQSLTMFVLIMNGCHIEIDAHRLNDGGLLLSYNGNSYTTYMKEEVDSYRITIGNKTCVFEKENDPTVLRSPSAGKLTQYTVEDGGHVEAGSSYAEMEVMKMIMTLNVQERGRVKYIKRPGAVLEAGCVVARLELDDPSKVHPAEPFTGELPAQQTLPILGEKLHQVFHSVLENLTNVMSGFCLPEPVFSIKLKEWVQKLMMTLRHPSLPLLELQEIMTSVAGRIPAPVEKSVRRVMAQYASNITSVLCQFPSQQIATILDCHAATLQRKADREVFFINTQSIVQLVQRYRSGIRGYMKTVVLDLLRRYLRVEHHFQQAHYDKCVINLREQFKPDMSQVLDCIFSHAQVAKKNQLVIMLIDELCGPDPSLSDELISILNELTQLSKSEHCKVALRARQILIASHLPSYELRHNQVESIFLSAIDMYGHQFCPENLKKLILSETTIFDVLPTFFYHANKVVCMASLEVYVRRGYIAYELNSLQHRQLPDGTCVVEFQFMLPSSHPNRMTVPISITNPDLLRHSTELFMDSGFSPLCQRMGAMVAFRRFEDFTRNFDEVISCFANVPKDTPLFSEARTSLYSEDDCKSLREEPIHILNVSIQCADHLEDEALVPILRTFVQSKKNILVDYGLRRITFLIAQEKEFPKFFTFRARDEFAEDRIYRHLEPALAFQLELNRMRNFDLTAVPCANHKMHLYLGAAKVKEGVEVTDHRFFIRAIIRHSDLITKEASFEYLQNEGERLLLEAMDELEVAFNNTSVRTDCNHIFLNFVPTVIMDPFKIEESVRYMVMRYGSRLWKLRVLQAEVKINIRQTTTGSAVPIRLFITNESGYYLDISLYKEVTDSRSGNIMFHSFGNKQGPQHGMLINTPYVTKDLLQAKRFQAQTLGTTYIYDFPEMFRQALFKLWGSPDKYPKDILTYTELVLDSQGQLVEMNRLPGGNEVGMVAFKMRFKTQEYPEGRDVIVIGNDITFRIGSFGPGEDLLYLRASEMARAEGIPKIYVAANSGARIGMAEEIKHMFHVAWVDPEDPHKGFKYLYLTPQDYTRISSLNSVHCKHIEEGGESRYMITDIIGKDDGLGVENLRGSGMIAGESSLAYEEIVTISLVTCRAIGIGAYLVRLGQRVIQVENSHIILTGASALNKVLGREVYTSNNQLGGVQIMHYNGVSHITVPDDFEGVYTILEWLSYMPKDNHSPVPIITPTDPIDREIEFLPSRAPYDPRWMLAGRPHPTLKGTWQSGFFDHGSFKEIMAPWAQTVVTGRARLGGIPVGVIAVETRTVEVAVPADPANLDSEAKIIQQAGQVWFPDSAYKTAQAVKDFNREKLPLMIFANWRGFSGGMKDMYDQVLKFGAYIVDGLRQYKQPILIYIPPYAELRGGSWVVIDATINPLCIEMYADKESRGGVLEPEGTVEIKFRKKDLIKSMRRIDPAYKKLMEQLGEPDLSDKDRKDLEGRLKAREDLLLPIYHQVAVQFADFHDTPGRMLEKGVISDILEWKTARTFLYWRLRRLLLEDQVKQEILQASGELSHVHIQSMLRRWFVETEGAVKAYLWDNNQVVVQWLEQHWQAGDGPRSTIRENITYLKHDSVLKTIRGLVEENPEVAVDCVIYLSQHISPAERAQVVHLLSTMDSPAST
Experimental: as §1

IC50 (Acetyl-CoA carboxylase 1): 0.487 nM
IC50 (Acetyl-CoA carboxylase 2): 10 nM
Structure (SMILES): COc1ccccc1[C@H](Cn1c(=O)n(CC2CC(C(=O)O)C2)c(=O)c2c(C)c(-c3ncco3)sc21)OC1CCOCC1 (some centres not stated) [US12384798, Compound c-1]
